Laboratory results published in US20240385182A1, “MASKED FLUOROGENIC LIPID COMPOUNDS, LIPID PARTICLES COMPRISING THE SAME, AND METHODS OF USE THEREOF” (Rutgers, The State University of New Jersey, priority 2023, published 2024).

Tested on: CD11b^+ macrophage population from BAL cells
Assay: Murine model of ITB-induced ALI: DPPC-TC fluorescence in BAL cells by flow cytometry
Format: in vivo, mice
Settings: 0.5 mM LNPs (5 mol % probe) on day 3, BAL 3 hour-post instillation, n = 3
Source text: FIGS. 11A-11B: flow cytometry analysis of myeloid-derived BAL cells for migratory phenotype and DPPC-TC-ONOO^− probe activity in murine model of ALI. FIG. 11A: conceptual illustration of ITB-induced ALI and LNP instillation. FIG. 11B: classification of myeloid-derived BAL cells by migratory phenotype (CD11b+) and DPPC-TC fluorescence. Quadrant plots are shown for individual mice, which were used to quantify DPPC-TC as a measure of peroxynitrite generation. After successfully imaging the iNOS dependent peroxynitrite activity in both HeLa and RAW264.7, the potential of DPPC-TC-ONOO^− for detecting peroxynitrite generated in lung tissue injury using a pre-established murine model of ALI was explored (FIGS. 11A-11B). During ALI, release of cytokines and chemokines, such as tumor necrosis factor-alpha (TNF-α) and interleukin-1 beta ([…]), recruit macrophages and other immune cells to the site of injury. During the initial phase of injury (d0-d3), pro-inflammatory macrophages are dominant, which is associated with higher levels of iNOS expression. Herein, a previously reported ITB method was employed, which causes a severe inflammatory response characterized by infiltration of immune cells, which is dependent upon iNOS activation. For a generalizable and biocompatible instillation protocol, LNP concentrations ranging from 0.5 to 2.0 mM were evaluated. LNPs carrying DPPC-TC (5 mol % of the lipid content) were employed in C57BL6/J mice and the viability of the cells from BAL was analyzed via flow cytometry. Results indicated 94% viability at 0.5 mM LNP concentration, which was employed for the subsequent experiments. On d0, mice (C57BL6/J or iNOS^−/−) were anesthetized and received an intratracheal instillation of either PBS (control) or bleomycin (FIGS. 11A-11B). To detect the peroxynitrite generation during the early inflammatory response, mice were again anesthetized and instilled with 0.5 mM LNPs containing DPPC-TC-ONOO^− (5 mol % of the lipid content) on day 3. […] The migratory population was further analyzed for DPPC-TC signal quantification (Table 4).

CCCCCCCCCCCCCCCC(=O)OCC(COP(=O)([O-])OCC[N+](C)(C)Cc1cn(-c2cc3ccc(OC(=O)Oc4ccc(CCC(=O)C(F)(F)F)cc4)cc3oc2=O)nn1)OC(=O)CCCCCCCCCCCCCCC (racemic) [DPPC-TC-ONOO^−]
DPPC-TC p:n ratio (WT-ITB): 0.72 ± 0.008 | DPPC-TC p:n ratio (WT-PBS): 0.55 ± 0.021 | DPPC-TC p:n ratio (iNOS^−/−-ITB): 0.56 ± 0.018
